Test results taken from patent publication US20250186960A1, “BIODEGRADABLE MICROCAPSULES AND A METHOD FOR THEIR PREPARATION” (priority 2022, published 2025).

Test: Microcapsule fragrance loading quantification via GC
Format: physicochemical
Conditions: for Composition 2 (encapsulate wt %): level of the fragrance material in microcapsules of Example 21B; for Composition 2 (oil wt %) / Composition 1 (oil wt %): share of the fragrance material in the encapsulated oil; for Composition 2 (oil wt %): Example 21B; for Composition 1 (encapsulate wt %): level of the fragrance material in microcapsules of Example 21A; for Composition 1 (oil wt %): Example 21A
Source text: Fragrance levels in the microcapsule can be determined by extraction of the fragrance and injection into a GC column. An Agilent 8890 gas chromatograph is used, equipped with a HP-5MS column, and using hydrogen as carrier gas. Quantification is achieved by use of a calibration curve for the given fragrance material diluted in ethanol.
To measure the total level of fragrance in an encapsulate sample, the capsules must first be broken by sonication, for example 1.0 g of encapsulate in 2.0 g of DI water with a Bandelin Sonopuls HD4200 ultrasonicator, equipped with probe TS104 for 1 minute at 30% amplitude (around 1.5 KJ in total). A few drops of aqueous potassium hydroxide solution (10% wt) are added before sonication to raise the pH of the solution above 11. While sonicating, ice is used to keep the temperature below room temperature (20° C.) to avoid any loss of fragrance through evaporation. A microscope is used to check visually if the capsules are fully broken. If not, sonication is repeated. Ethanol is added to the mixture, which is then mixed and centrifuged. The supernatant is collected and retained as the first extraction. The residue is mixed with ethanol again and centrifuged. The supernatant is collected and added to the first extraction. This is then diluted as appropriate and injected into the GC for analysis.
To measure the level of free fragrance in the sample (i.e. the level of un-encapsulated fragrance), the encapsulate slurry is well mixed in DI water and filtered using a sterile cell strainer (40 μm Nylon mesh). The filtrate is diluted with ethanol and injected into the GC for analysis.
The encapsulated fragrance level is the difference between the total fragrance and the free fragrance levels.

Row | Compound | Composition 2 (encapsulate wt %) [wt %] | Composition 2 (oil wt %) [wt %] | Composition 1 (encapsulate wt %) [wt %] | Composition 1 (oil wt %) [wt %]
1 | O=C(OCc1ccccc1)c1ccccc1O [Benzyl salicylate] | 0.66 | 22.5 |  | 
2 | OC/C=C/c1ccccc1 [Cinnamic alcohol] |  |  | 0.01 | 0.5
3 | C/C=C/C(=O)C1C(C)C=CCC1(C)C (centres unmarked) [Delta damascone] | 0.53 | 18.1 | 0.54 | 29.5
4 | C=C(C)[C@H]1CC=C(C)CC1 [Dipentene] | 0.63 | 21.5 |  | 
5 | c1ccc(Oc2ccccc2)cc1 [Diphenyl oxide] | 0.59 | 20.1 |  | 
6 | CC(C)=CCC/C(C)=C/CO [Geraniol] |  |  | 0.11 | 6.0
7 | CCC=C(C)C(O)CCCCC (centres unmarked) [Undecavertol] |  |  | 0.39 | 21.3
8 | CCCCCCCCCCCC#N [dodecane nitrile] |  |  | 0.79 | 43.2
9 | Ortho tertiary butyl cyclo hexyl acetate | 0.52 | 17.7 |  | 
